Series [1] in a line: Half life in a medium of rat intestinal homogenate. The format is ADME.
For series [2], the system named is Pseudomonas aeruginosa. Description: Antibacterial activity against Ps. aeruginoa(4279). The class given is functional.
Series [3] concerns Staphylococcus aureus. In words: Antibacterial activity against Staphylococcus aureus (2865). The class given is functional.
Series [4] relates to Staphylococcus aureus. In words: Antibacterial activity against Staphylococcus aureus GmR Meth(4310). The format is functional.
The test system of series [5] is Enterobacter cloacae. In words: Antibacterial activity against Ent. cloacae 99+(2646). The format is functional. As to conditions: P99.
The subject of another series is Salmonella typhimurium. Description: Antibacterial activity against Sal. Typhimurium (3860). The format is functional, Salmonella enterica subsp. enterica serovar Typhimurium. As to conditions: Salmonella enterica.
For series [6], the system named is Rhesus monkey. In words: (§1) Urine conc 0-5 hours following 25 mg/kg dose. The format is functional, Macaca mulatta.
Series [7] relates to Staphylococcus aureus. In words: Antibacterial activity against Staphylococcus aureus (2868). The format is functional.
Series [8] in a line: Half life in a medium of phosphate buffer in pH 7.4. The format is ADME.
For series [9], the system named is Pseudomonas aeruginosa. In words: Antibacterial activity against Ps. aeruginosa RPL11+(3350). The format is functional.
Series [10] relates to Proteus vulgaris. Description: Antibacterial activity against Prot. vulgaris(2829). The format is functional.
Another series has as its system Monkey. In words: % dose recovered in urine. The class given is functional, Cercopithecidae.
The nature of series [11]: Solubility in citrate buffer (0.1 M) at 25 degree centigrade(pH 5). The format is physicochemical. As to conditions: for solubility: citrate buffer, read-out: S.
Series [12] relates to Klebsiella pneumoniae. In words: Antibacterial activity against Klebsiella pneumoniae (4005). The format is functional.
Series [13] concerns Morganella morganii. Description: Antibacterial activity against Prot. morganii SmR(2833). The format is functional.
The test system of series [14] is Rhesus monkey. In words: Urine conc 0-24 hours following 25mg/kg dose. The format is functional, Macaca mulatta.
Series [15] in a line: Half life in a medium of human serum. The class given is ADME, organism-based.
Series [16] can be described thus: Solubility in phosphate buffer (0.1 M) at 25 degree centigrade(pH 7.4). The class given is physicochemical.
A short description of series [17]: Half life in a medium of dog serum. The class given is ADME, organism-based, Canis lupus familiaris.
Series [18] has as its system Klebsiella pneumoniae. In words: Antibacterial activity against Klebsiella pneumoniae K1+(4354). The class given is functional.
Series [19] is described as follows: Solubility in water at 25 degree Centigrade. The class given is physicochemical. As to conditions: read-out: S.
In series [20] the test system is Rhesus monkey. Description: (§2) Serum conc at 3 hours following 25 mg/kg dose. The format is functional, Macaca mulatta.
Series [21] is described as follows: Half life in a medium of rat serum. The class given is ADME, organism-based.
The subject of the next series is Serratia marcescens. In words: Antibacterial activity against Ser. marcescens (2840). The format is functional.
Series [22] deals with Escherichia coli. Description: Antibacterial activity against Escherichia coli DC2(4353). The format is functional.
For series [23], the system named is Enterobacter cloacae. Description: Antibacterial activity against Ent. cloacae P99-(2647). The class given is functional.
The subject of a further series is Streptococcus sp. Description: Antibacterial activity against Strep. Faecalis (2864). The format is functional.
For series [24], the system named is Pseudomonas aeruginosa. Description: Antibacterial activity against Ps. aeruginoa(2835). The format is functional.
The test system of series [25] is Escherichia coli. In words: Antibacterial activity against Escherichia coli (2891). The class given is functional.
Series [26] relates to Proteus mirabilis. Description: Antibacterial activity against Prot. mirabilis GmR(2830). The class given is functional.
In series [27] the test system is Escherichia coli. In words: Antibacterial activity against Escherichia coli TEM 2+(4351). The class given is functional.
Series [28] relates to Escherichia coli. Description: Antibacterial activity against Escherichia coli TEM 2+ DC2(4352). The format is functional.
Series [29] relates to Klebsiella aerogenes. Description: Antibacterial activity against Ent. aerogenes(2828). The class given is functional.
A short description of series [30]: Solubility in bicarbonate buffer (0.05 M) at 25 degree centigrade(pH 8.5). The format is physicochemical. As to conditions: read-out: S.
The test system of another series is Enterococcus faecalis. In words: Antibacterial activity against Strep. faecalis (2864). The format is functional.
Series [31] relates to Klebsiella aerogenes. In words: Antibacterial activity against Ent. aerogenes (2828). The class given is functional.
The subject of series [32] is Klebsiella pneumoniae. In words: Antibacterial activity against Klebsiella pneumoniae K1+ (4354). The format is functional.
Series [33] relates to Pseudomonas aeruginosa. Description: Antibacterial activity against Ps. aeruginosa RPL11+ (3350). The format is functional.
Series [34] is described as follows: as §2. The format is ADME, organism-based, Macaca mulatta. Also on record: dose 25 mg/kg. As to conditions: rhesus monkey, read-out: Concentration_plasma.
For series [35], the system named is Pseudomonas aeruginosa. Description: Antibacterial activity against Ps. aeruginosa (2835). The class given is functional.
Series [36] has as its system Staphylococcus aureus. In words: Antibacterial activity against Staphylococcus aureus GmR Meth (4310). The format is functional.
Series [37] relates to Enterobacter cloacae. In words: Antibacterial activity against Ent. cloacae 99+ (2646). The format is functional. As to conditions: P99.
The nature of series [38]: Urine conc 0-24 hours following 25 mg/kg dose. Also on record: dose 25 mg/kg. The class given is ADME, organism-based, Macaca mulatta. As to conditions: rhesus monkey, in vivo.
Series [39] relates to Escherichia coli. Description: Antibacterial activity against Escherichia coli TEM 2+ DC2 (4352). The format is functional.
Series [40] deals with Pseudomonas aeruginosa. In words: Antibacterial activity against Ps. aeruginosa (4279). The format is functional.
In series [41] the test system is Proteus vulgaris. Description: Antibacterial activity against Prot. vulgaris (2829). The format is functional.
Series [42] is described as follows: as §1. The format is ADME, organism-based, Macaca mulatta. As to conditions: rhesus monkey, in vivo. Also on record: dose 25 mg/kg.
Series [43] concerns Escherichia coli. Description: Antibacterial activity against Escherichia coli DC2 (4353). The class given is functional.
Series [44] deals with Enterobacter cloacae. Description: Antibacterial activity against Ent. cloacae P99- (2647). The class given is functional.
For series [45], the system named is Escherichia coli. Description: Antibacterial activity against Escherichia coli TEM 2+ (4351). The class given is functional.
Series [46] concerns Proteus mirabilis. Description: Antibacterial activity against Prot. mirabilis GmR (2830). The class given is functional.
Series [47] relates to Morganella morganii. Description: Antibacterial activity against Prot. morganii SmR (2833). The format is functional.

Molecules are shown by their SMILES. Values after ≈ are worked out from the molar mass of the structure shown. Some results are limits rather than exact numbers.

The half-life is the time in which the quantity being followed falls by half. Broadly, the MIC is the lowest concentration that inhibits growth of the organism.

On to `CCn1cc(C(=O)O)c(=O)c2cc(F)c(N3CCN(C(=O)OCOC(C)=O)CC3)cc21`, for which the half-life in series [1] was 2.6 min; in [8] it was 5.33 days; in [15] it was 116 min; in [17] it was 6 min; in series [21] it was 1.5 min. Also, the MIC is more than 128 µg/mL in the series on Pseudomonas aeruginosa [2]; 2 µg/mL (≈ 4.59 µM) in the series with Staphylococcus aureus [3]; 2 µg/mL (≈ 4.59 µM) in the series with Staphylococcus aureus [4]; more than 128 µg/mL against Enterobacter cloacae [5]; more than 128 µg/mL in the series on Salmonella typhimurium; 1 µg/mL (≈ 2.3 µM) against Staphylococcus aureus [7]. For the same molecule, the MIC against Pseudomonas aeruginosa [9] is more than 128 µg/mL; in the series with Proteus vulgaris [10], more than 128 µg/mL; in the series on Klebsiella pneumoniae [12] it was 32 µg/mL (≈ 73.5 µM); against Morganella morganii [13], 8 µg/mL (≈ 18.4 µM); in the series with Klebsiella pneumoniae [18], more than 128 µg/mL; against Serratia marcescens, more than 128 µg/mL. Also, the MIC in the series on Escherichia coli [22] was more than 128 µg/mL; against Enterobacter cloacae [23] it was more than 128 µg/mL; against Streptococcus sp., more than 128 µg/mL; against Pseudomonas aeruginosa [24] it was more than 128 µg/mL; in the series on Escherichia coli [25], 128 µg/mL (≈ 294 µM); in the series with Proteus mirabilis [26], more than 128 µg/mL. The MIC with Escherichia coli [27], with Escherichia coli [28] and with Klebsiella aerogenes [29] was more than 128 µg/mL in each case. For the same molecule, the Concentration_urine in the series with Rhesus monkey [6] stood at 25.03 µg/mL; in the series with Rhesus monkey [14], 21.97 µg/mL. Further, the Dose in the series on Monkey was determined as 7.23%. In addition, the solubility in series [11] came to 5 µg/mL (≈ 11.5 µM); in [16], 50 µg/mL (≈ 115 µM); in series [19], 60 µg/mL (≈ 138 µM); in series [30], 410 µg/mL (≈ 942 µM). Also, the Concentration_plasma with Rhesus monkey [20] was found to be 0.36 µg/mL.
Regarding `CCn1cc(C(=O)O)c(=O)c2cc(F)c(N3CCN(C(=O)OC(C)OC(C)=O)CC3)cc21` (centres undefined), the results for the solubility in series [11], in series [16] and in series [30] were 30 µg/mL (≈ 66.8 µM), 60 µg/mL (≈ 134 µM) and 150 µg/mL (≈ 334 µM), respectively. Besides, the half-life in series [17] is 6 min; in series [21], 1.5 min.
`CCn1cc(C(=O)O)c(=O)c2cc(F)c(N3CCNCC3)cc21` [NORFLOXACIN]: the MIC against Staphylococcus aureus [3] worked out at 0.25 µg/mL (≈ 0.783 µM); against Salmonella typhimurium, 0.5 µg/mL (≈ 1.57 µM); against Enterococcus faecalis, 8 µg/mL (≈ 25.1 µM); against Klebsiella aerogenes [31], 0.5 µg/mL (≈ 1.57 µM); against Staphylococcus aureus [7], 1 µg/mL (≈ 3.13 µM); against Klebsiella pneumoniae [32], 8 µg/mL (≈ 25.1 µM). The MIC amounted to 1 µg/mL (≈ 3.13 µM) in the series with Pseudomonas aeruginosa [33]; 1 µg/mL (≈ 3.13 µM) with Pseudomonas aeruginosa [35]; 0.06 µg/mL (≈ 0.188 µM) in the series with Klebsiella pneumoniae [12]; 1 µg/mL (≈ 3.13 µM) with Staphylococcus aureus [36]; 1 µg/mL (≈ 3.13 µM) in the series with Enterobacter cloacae [37]; 4 µg/mL (≈ 12.5 µM) against Serratia marcescens. The MIC came to 0.5 µg/mL (≈ 1.57 µM) against Escherichia coli [39]; 1 µg/mL (≈ 3.13 µM) against Pseudomonas aeruginosa [40]; 0.06 µg/mL (≈ 0.188 µM) against Proteus vulgaris [41]; 0.5 µg/mL (≈ 1.57 µM) in the series on Escherichia coli [43]; 0.06 µg/mL (≈ 0.188 µM) in the series with Escherichia coli [25]; 0.25 µg/mL (≈ 0.783 µM) with Enterobacter cloacae [44]. In addition, the MIC against Escherichia coli [45] came to 0.03 µg/mL (≈ 0.0939 µM); in the series on Escherichia coli [45] (Escherichia coli, read-out: MIC), 0.03 µg/mL (≈ 0.0939 µM); in the series on Proteus mirabilis [46], 0.06 µg/mL (≈ 0.188 µM); in the series with Morganella morganii [47] it was 0.06 µg/mL (≈ 0.188 µM). Also, the concentration at 3 h in series [34] was 760 ng/mL. Besides, the Dose with Monkey is recorded as 16.3%. This molecule also displayed a S in series [11] (buffer) of 8 mg/mL. Further, the solubility in series [16] came to 200 µg/mL (≈ 626 µM); in series [19] it was 190 µg/mL (≈ 595 µM); in series [30], 210 µg/mL (≈ 658 µM). Also, the figures for the Concentration_urine in series [38] and in series [42] were 33.78 µg/mL and 175.86 µg/mL, respectively.

Values taken from ChEMBL document CHEMBL1125758, “(Acyloxy)alkyl carbamate prodrugs of norfloxacin” (J Med Chem, 1991).
